Results from ChEMBL document CHEMBL1201862, “PubChem BioAssay data set” (2004).
Structures can show the parent of a compound that is named as a salt. The source made the active and inactive calls.

Legend:
[1] = biological target: T1, Corticotropin-releasing factor receptor 2/Corticotropin-releasing factor-binding protein (Homo sapiens, UniProt P24387+Q13324); test: activators of CRF receptor 2 with binding protein – uHTS hits, confirmation (AID 602473); assay type: functional; conditions: read-out: EC50_Mean
T1 sequence (Q13324 whole entry): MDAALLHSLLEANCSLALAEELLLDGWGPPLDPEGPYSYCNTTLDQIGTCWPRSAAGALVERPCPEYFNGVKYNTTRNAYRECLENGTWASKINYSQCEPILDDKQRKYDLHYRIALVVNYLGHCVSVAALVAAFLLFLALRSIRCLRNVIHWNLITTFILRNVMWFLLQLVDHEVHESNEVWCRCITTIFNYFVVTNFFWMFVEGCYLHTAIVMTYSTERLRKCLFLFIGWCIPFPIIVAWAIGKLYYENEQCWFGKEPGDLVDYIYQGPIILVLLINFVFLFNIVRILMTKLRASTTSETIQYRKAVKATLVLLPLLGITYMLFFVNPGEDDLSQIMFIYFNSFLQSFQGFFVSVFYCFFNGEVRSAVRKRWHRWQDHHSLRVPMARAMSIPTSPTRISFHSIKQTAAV
T1 sequence (P24387 whole entry): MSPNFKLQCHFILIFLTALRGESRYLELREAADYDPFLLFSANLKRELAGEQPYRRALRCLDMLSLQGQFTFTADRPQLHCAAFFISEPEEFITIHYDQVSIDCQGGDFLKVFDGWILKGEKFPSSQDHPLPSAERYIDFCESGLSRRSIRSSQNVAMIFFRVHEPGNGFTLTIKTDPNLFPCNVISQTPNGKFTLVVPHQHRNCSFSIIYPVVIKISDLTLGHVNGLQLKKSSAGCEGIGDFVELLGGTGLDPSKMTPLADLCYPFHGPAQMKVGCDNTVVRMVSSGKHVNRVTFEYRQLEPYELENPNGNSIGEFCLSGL

[2] = blockers of CRF-binding protein–CRF-R2 complex – cell-based, uHTS hits, 384-well, dose response (AID 651639); assay type: functional, Homo sapiens; conditions: read-out: IC50_Mean
[3] = biological target: T1, Corticotropin-releasing factor receptor 2/Corticotropin-releasing factor-binding protein; test: Dose Response confirmation of uHTS hits for small molecule antagonists of the CRF-binding protein and CRF-R2 receptor complex.; assay type: functional; conditions: read-out: IC50_Mean
[4] = alpha-synuclein stem-loop luciferase translation blockers – H4 neuroglioma cells, luminescence, confirmation (AID 1988); assay type: functional, cell-based
cells = assay type: functional, cell-based
[5] = Luminescence Cell-Based Dose Response HTS to Identify Inhibitors of 5'UTR Stem-Loop Driven Prion Protein mRNA Translation in H4 Neuroglioblastoma Cells. [Related pubchem assays: 1827 (Project Summary), 1813 (Primary HTS)]; assay type: functional
[6] = biological target: T2, Nuclear receptor subfamily 0 group B member 1 (Homo sapiens, UniProt P51843); assay type: functional, cell-based;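 also: HEK293T cells transfected with SF-1 and DAX-1 plus StAR promoter luciferase reporter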
T2 sequence (P51843 whole entry): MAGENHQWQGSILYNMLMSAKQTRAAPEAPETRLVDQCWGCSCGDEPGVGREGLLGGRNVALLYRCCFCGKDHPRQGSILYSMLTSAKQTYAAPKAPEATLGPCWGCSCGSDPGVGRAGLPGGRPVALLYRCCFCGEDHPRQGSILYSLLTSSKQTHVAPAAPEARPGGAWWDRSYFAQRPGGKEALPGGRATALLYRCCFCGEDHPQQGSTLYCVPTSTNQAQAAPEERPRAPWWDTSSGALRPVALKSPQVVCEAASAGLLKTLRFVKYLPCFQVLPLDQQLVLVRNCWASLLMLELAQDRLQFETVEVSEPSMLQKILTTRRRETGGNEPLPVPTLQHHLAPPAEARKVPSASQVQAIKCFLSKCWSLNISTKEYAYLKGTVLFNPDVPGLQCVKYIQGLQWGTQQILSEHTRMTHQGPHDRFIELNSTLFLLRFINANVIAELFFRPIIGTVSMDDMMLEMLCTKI

[7] = biological target: T3, Mannose-6-phosphate isomerase (Homo sapiens, UniProt P34949); test: MPI inhibition at elevated mannose 6-phosphate – biochemical, fluorescence intensity, high mannose 6-phosphate, primary screen (AID 1220)
T3 sequence (P34949 whole entry): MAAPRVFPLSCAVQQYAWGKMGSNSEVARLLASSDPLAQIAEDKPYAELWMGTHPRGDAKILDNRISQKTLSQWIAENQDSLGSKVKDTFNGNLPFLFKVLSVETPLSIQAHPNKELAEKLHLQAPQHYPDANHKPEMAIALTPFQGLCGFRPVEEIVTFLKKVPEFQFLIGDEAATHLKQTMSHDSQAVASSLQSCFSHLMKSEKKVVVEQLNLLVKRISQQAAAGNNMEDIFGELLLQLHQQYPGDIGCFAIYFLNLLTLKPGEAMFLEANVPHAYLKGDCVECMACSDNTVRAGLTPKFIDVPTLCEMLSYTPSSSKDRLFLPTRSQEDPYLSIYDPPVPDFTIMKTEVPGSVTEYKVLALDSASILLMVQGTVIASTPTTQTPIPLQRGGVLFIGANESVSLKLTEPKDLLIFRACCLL

[8] = biological target: T4, Sentrin-specific protease 8 (Homo sapiens, UniProt Q96LD8); assay type: functional
T4 sequence (Q96LD8 whole entry): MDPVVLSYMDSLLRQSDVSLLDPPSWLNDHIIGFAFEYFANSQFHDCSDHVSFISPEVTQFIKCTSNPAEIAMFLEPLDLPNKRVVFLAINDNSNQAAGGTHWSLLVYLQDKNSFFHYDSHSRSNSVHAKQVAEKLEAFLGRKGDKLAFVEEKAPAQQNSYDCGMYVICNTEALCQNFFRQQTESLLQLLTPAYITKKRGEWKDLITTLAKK

[9] = biological target: T4, Sentrin-specific protease 8; assay type: functional; remark: listed apart in the source
[10] = biological target: T5, RNA-binding protein pos-1 (Caenorhabditis elegans, UniProt G5EF15); test: disruptors of C. elegans POS-1 RNA interaction – biochemical, fluorescence polarization, dose response (AID 1964);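 also: purified POS-1 fused to maltose binding protein made in E. coli; potency of compounds blocking POS-1 binding to fluorescent RNA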
T5 sequence (G5EF15 whole entry): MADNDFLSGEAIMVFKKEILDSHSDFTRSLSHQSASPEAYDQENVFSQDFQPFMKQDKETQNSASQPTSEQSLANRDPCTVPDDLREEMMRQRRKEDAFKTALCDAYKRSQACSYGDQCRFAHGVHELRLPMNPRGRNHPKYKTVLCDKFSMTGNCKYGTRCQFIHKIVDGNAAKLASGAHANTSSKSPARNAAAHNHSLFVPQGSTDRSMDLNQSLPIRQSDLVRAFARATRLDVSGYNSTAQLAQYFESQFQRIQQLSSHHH

[11] = inhibition of ARNT PAS-B/TACC3 complex formation – biochemical, AlphaScreen, cherry-picked samples, confirmation (AID 651703); assay type: functional, Homo sapiens;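 also: His-tagged ARNT PAS-B domain paired with GST-TACC3 E629A dimer coactivator fragment; potency of inhibitors that break up the complex and lower AlphaScreen signal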
Escherichia coli [12] = test: microbe, parasite or virus in culture
[13] = system: Streptococcus sp. 'group A'; test: Streptococcus pyogenes SK(-)GAS viability under kanamycin – luminescence, BacTiterGlo, confirmation, counter-screen for streptokinase expression inhibitor project, dose response (AID 1900); assay type: functional, organism-based
Escherichia coli [14] = test: microbe, parasite or virus in culture; remark: listed apart in the source
[15] = biological target: T6, Zinc finger protein mex-5 (Caenorhabditis elegans, UniProt Q9XUB2); test: potency of MEX-5 RNA-binding blockers – biochemical, C. elegans, fluorescence polarization, dose response (AID 1960)
T6 sequence (Q9XUB2 whole entry): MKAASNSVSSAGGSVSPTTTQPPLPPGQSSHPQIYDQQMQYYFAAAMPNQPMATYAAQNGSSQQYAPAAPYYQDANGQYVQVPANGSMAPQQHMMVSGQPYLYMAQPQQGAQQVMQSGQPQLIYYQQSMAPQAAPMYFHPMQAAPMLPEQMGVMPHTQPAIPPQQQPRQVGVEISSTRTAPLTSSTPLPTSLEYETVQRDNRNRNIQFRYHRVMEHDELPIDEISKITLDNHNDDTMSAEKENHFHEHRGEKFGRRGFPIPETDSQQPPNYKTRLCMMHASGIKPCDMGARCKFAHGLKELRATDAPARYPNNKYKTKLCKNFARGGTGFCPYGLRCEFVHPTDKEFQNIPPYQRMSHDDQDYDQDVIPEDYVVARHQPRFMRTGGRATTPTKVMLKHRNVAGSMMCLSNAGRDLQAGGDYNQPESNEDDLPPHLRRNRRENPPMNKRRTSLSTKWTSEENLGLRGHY

Streptococcus = test: GAS UMAA2166 growth inhibition – luminescence, BacTiterGlo, counter-screen for streptokinase expression inhibitor project, dose response (AID 1915); assay type: functional, organism-based;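 also: potency for reduction of bacterial viability or growth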
[16] = viability of PTEN-deleted HCT116 cells – cell-based, HCT116 PTEN knockout, dose response (AID 1047); assay type: functional;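 also: HCT116 colon tumor cells with PTEN knocked out; cells exposed to compound for 60 hours before readout; potency for loss of cell viability measured by luminescence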
[17] = biological target: ADP-ribosylation factor GTPase-activating protein 1 (Rattus norvegicus, UniProt Q62848); test: Fluorescence polarization-based biochemical high throughput dose response screening assay to identify inhibitors of ADP-ribosylation factor GTPase activating protein 1 (ARFGAP1).; assay type: functional
[18] = biological target: Arf-GAP with SH3 domain, ANK repeat and PH domain-containing protein 1 (Homo sapiens, UniProt Q9ULH1); assay type: functional;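 also: biochemical fluorescence polarization dose–response screen measuring inhibition of ASAP1; ASAP1 GAP domain stimulating GTP hydrolysis by truncated human ARF1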
[19] = viability of HCT116 lacking mutant beta-catenin – cell-based, human colon tumor, dose response (AID 1045); assay type: functional;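 also: HCT116 colon tumor cells with beta catenin knocked out; cells exposed to compound for 60 hours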
[20] = Luminescence Cell-Based Dose Retest to Confirm Inhibitors of Cancer Stem Cells. [Related pubchem assays (depositor defined):AID2717, AID2721]; assay type: functional; conditions: Homo sapiens
Streptokinase A = biological target: T7, Streptokinase A (Streptococcus pyogenes serotype M1, UniProt P10520); test: viability-normalized secreted streptokinase activity reduction – plasminogen activation absorbance, OD405, dose response (AID 1914); assay type: functional, Streptococcus pyogenes M1 GAS;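 also: secreted streptokinase activity via plasminogen activation per viability signal from cell pellet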
T7 sequence (P10520 whole entry): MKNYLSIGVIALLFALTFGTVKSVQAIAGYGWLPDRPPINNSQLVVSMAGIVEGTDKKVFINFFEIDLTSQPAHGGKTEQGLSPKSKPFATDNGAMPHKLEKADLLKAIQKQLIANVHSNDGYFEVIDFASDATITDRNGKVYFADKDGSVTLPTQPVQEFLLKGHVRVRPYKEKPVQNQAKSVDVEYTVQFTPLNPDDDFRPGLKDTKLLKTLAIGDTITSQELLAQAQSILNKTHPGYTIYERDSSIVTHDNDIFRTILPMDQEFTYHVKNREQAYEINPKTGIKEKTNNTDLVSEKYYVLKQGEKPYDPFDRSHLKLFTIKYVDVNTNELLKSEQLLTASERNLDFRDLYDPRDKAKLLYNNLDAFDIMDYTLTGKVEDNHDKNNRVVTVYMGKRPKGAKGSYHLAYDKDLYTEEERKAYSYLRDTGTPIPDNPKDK

[21] = Trypanosoma cruzi growth suppression in host cells – NIH3T3 host cells, beta-gal luminescence, confirmation (AID 2044); assay type: functional, cell-based;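 also: intracellular parasites grown in NIH/3T3 mouse fibroblasts as host cells; luminescent beta-galactosidase reporter signal from transgenic T. cruzi replicating inside host cells; inhibitors lower the luminescence signal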
[22] = general mammalian cell viability loss – inhibitor set, cherry-pick, set 2, cytotoxicity control for miR-122 modulator project, dose response (AID 720697); assay type: functional, cell-based
[23] = NIH3T3 cell viability loss – ATP luminescence, mouse fibroblasts, counter-screen, dose response (AID 2010); assay type: functional, cell-based;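 also: cells exposed to compound for about 90 hours before reading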
[24] = Counterscreen for activators of the function of SWI/SNF related, matrix associated, actin dependent regulator of chromatin, subfamily a, member 2 (SMARCA2, BRM): Luminescence-based cell-based high throughput dose response assay to identify non-selective compounds using the VP16 reporter assay.; assay type: functional
[25] = biological target: SWI/SNF-related matrix-associated actin-dependent regulator of chromatin subfamily A member 2 (Homo sapiens, UniProt P51531); test: Luminescence-based cell-based high throughput dose response assay to identify activators of the function of SWI/SNF related, matrix associated, actin dependent regulator of chromatin, subfamily a, member 2 (SMARCA2, BRM).; assay type: functional
Mu-type opioid receptor = Mu-type opioid receptor (Homo sapiens, UniProt P35372); assay type: functional, cell-based;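 also: U2OS cells with beta-arrestin recruitment to OPRM1 by beta-gal complementation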
Large T antigen = Large T antigen (Simian virus 40, UniProt P03070); assay type: functional, Betapolyomavirus macacae;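 also: Confirmatory-stage PubChem screen for compounds that inhibit SV40 T antigen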
Sequence of Large T antigen (P03070 whole entry): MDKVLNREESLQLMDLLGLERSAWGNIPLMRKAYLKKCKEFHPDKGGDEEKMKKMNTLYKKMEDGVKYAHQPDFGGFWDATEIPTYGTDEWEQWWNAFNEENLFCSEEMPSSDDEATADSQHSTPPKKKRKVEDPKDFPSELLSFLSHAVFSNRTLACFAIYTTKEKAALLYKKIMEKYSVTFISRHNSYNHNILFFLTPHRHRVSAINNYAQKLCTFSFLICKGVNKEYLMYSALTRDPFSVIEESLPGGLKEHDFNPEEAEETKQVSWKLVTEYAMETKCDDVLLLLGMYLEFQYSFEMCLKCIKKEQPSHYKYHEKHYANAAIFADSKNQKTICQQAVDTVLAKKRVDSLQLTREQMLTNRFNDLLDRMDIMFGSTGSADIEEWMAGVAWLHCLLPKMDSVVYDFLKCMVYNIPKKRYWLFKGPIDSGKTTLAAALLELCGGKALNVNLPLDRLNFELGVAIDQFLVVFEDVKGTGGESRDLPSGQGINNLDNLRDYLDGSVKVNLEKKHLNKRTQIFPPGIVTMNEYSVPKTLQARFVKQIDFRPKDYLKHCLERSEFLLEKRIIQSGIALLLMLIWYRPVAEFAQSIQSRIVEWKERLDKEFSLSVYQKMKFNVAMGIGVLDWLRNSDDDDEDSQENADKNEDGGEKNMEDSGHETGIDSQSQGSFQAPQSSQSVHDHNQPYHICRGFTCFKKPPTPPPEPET

Sequence of ADP-ribosylation factor GTPase-activating protein 1 (Q62848 whole entry, the tested form may be a part): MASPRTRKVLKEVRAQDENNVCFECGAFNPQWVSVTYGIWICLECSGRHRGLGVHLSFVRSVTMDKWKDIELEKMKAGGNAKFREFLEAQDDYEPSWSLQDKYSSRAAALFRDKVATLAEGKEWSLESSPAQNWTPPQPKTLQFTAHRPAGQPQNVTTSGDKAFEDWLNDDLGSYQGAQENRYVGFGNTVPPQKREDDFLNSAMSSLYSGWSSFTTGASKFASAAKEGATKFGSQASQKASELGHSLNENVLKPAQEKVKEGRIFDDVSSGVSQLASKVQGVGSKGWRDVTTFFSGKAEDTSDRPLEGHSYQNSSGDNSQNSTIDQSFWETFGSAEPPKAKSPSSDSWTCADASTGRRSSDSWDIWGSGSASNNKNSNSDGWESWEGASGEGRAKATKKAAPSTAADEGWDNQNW
Sequence of Arf-GAP with SH3 domain, ANK repeat and PH domain-containing protein 1 (Q9ULH1 whole entry, the tested form may be a part): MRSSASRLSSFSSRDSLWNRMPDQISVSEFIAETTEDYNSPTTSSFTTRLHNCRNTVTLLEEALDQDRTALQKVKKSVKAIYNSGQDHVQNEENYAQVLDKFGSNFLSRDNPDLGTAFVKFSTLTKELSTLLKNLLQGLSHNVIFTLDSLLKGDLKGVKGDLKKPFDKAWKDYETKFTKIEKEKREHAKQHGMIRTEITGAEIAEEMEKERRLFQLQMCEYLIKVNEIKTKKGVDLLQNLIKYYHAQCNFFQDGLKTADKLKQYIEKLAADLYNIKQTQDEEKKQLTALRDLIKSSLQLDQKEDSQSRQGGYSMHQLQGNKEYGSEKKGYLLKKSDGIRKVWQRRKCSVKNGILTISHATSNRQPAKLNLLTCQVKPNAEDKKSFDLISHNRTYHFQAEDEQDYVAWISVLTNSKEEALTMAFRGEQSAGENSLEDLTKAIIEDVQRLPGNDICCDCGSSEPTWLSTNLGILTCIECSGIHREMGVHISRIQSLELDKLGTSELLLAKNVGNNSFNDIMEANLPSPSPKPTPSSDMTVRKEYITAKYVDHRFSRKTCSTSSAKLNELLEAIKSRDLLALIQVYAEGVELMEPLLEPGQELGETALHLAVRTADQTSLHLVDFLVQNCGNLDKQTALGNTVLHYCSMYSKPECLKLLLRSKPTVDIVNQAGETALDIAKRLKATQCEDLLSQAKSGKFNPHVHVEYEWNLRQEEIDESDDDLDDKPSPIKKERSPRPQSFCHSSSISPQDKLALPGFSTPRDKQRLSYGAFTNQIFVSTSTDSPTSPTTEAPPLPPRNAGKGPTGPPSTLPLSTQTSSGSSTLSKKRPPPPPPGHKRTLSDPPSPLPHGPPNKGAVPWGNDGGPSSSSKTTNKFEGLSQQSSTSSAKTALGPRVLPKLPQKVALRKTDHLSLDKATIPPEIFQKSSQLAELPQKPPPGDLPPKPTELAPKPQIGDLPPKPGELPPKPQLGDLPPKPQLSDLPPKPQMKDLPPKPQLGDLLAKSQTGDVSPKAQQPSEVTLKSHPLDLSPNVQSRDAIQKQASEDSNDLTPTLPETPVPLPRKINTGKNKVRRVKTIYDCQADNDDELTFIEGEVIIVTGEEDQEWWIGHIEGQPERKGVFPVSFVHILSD
Sequence of SWI/SNF-related matrix-associated actin-dependent regulator of chromatin subfamily A member 2 (P51531 whole entry): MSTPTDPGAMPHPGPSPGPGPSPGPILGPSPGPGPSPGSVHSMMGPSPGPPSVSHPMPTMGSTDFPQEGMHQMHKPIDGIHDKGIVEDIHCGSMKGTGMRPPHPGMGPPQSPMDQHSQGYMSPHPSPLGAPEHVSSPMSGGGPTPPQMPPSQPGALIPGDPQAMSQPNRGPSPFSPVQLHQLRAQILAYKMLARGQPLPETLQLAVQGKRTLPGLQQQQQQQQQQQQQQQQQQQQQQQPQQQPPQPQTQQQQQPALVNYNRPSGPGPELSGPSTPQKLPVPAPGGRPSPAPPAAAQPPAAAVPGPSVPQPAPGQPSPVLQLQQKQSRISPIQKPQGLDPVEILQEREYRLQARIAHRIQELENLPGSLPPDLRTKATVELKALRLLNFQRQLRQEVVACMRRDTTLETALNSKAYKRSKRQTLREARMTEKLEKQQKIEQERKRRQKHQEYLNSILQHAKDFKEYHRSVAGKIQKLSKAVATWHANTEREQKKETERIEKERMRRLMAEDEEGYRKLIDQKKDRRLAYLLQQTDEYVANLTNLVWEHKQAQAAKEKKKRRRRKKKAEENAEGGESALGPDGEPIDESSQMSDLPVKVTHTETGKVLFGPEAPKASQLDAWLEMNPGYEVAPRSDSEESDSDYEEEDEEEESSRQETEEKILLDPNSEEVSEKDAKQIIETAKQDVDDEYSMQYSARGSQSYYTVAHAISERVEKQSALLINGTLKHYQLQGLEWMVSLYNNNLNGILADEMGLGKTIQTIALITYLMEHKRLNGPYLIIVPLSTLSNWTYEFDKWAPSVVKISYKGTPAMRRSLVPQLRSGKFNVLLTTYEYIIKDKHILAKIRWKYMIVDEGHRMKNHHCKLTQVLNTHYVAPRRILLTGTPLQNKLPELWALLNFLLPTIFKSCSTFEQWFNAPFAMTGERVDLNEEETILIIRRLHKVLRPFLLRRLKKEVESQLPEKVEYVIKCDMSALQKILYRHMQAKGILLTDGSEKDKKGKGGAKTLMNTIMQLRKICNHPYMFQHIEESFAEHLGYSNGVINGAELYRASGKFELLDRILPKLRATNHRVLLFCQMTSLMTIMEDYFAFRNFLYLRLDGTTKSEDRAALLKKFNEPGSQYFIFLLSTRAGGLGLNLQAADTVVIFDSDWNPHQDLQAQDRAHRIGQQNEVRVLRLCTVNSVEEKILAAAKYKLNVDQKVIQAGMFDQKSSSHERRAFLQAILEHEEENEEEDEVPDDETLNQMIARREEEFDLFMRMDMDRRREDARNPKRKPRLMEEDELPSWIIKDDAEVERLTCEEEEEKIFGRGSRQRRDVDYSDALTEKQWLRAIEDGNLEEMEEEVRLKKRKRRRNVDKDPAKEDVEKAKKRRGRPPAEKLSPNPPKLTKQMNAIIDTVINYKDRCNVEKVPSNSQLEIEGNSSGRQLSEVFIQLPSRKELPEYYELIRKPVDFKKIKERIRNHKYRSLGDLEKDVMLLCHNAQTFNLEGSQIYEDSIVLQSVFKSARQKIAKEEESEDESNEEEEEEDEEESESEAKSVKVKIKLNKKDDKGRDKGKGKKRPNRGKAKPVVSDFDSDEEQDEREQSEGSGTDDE
Sequence of Mu-type opioid receptor (P35372 whole entry): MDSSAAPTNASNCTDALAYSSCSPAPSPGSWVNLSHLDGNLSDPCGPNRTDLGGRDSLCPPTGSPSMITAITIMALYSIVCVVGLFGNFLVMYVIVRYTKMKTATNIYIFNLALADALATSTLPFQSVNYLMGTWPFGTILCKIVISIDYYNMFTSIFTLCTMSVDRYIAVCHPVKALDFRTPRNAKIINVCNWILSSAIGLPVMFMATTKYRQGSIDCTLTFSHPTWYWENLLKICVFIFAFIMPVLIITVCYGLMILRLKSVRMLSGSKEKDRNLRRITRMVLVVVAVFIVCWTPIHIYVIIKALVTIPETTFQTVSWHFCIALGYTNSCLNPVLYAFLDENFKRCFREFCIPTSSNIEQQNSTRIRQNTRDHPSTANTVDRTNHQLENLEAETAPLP

SMILES: COc1ccc(/C=C2\CCC/C(=C\c3ccc(OC)c(OC)c3OC)C2=O)c(OC)c1OC
- EC50 [1]: > 53 µM (inactive)
- IC50 [2]: 7.33 µM (active)
- IC50 [3]: 4.04 µM (active)

SMILES: COc1ccc(C(=O)NCCC2=CCCCC2)cc1
- EC50 [4]: 8.69 µM (inconclusive)
- IC50 (cells): > 67.5 µM (inactive)
- EC50 [5]: 8.58 µM (active)
- IC50 [6]: > 0.278 µM (active)

SMILES: NC(=O)c1ccc(/N=C2\C(=O)Nc3ccc([N+](=O)[O-])cc32)cc1
- IC50 [7]: 27.5 µM (active)
- IC50 [8]: 3.98 µM (active)
- IC50 [9]: 4.25 µM (active)

SMILES: CN(C)[C@@H]1C(=O)C(C(N)=O)=C(O)[C@@]2(O)C(O)=C3C(=O)c4c(O)cccc4[C@@](C)(O)C3[C@H](O)C12 (some centres not stated)
- EC50 [10]: 54.1 µM (active)
- AC50 [11]: 75.2 µM (active)
- AC50 (Escherichia coli [12]): < 0.3 µM (active)
- EC50 [13]: 0.088 µM (active)
- AC50 (Escherichia coli [14]): 9.92 µM (active)
- EC50 [15]: 20.5 µM (active)
- EC50 (Streptococcus): 0.277 µM (active)

SMILES: O=C(/C=C\c1cn(-c2ccccc2)nc1-c1ccccc1)Nc1nccs1
- EC50 [16]: 7.09 µM (active)
- IC50 [17]: 32.1 µM (inactive)
- IC50 [18]: 26.2 µM (inactive)
- EC50 [19]: 7.96 µM (active)

SMILES: C/C(=N\Nc1cc(N2CCCCC2)nc(C)n1)c1ccc(Br)cc1
- AC50 [20]: 5.52 µM (active)
- EC50 (Streptokinase A): 46.7 µM (inconclusive)
- EC50 [21]: 0.7 µM (active)
- AC50 [22]: 5.41 µM (active)
- EC50 [23]: > 60 µM (not active)
- EC50 [13]: 6.7 µM (active)
- EC50 (Streptococcus): > 50 µM (not active)

SMILES: CCc1noc(C)c1C(=O)N1CCS/C1=N\c1cccc(Cl)c1C
- EC50 [1]: > 53 µM (inactive)
- IC50 [2]: > 20 µM (inactive)
- IC50 [3]: < 0.368 µM (active)

SMILES: O=C(N/N=C/c1ccc2c(c1)OCO2)c1ccccn1
- IC50 (cells): > 67.5 µM (inactive)
- IC50 [6]: > 67.5 µM (inactive)

SMILES: O=C1C(Sc2ccccc2)=C[C@@]2(O)CC[C@@H](O)[C@]1(Sc1ccccc1)[C@H]2O
- EC50 [24]: > 91.3 µM (inactive)
- EC50 [25]: > 91.3 µM (inactive)

SMILES: NCCc1c[nH]c2ccc(O)cc12 [SEROTONIN HYDROCHLORIDE]
- EC50 (Mu-type opioid receptor): 92.4 µM (inactive)
- IC50 (Large T antigen): 41.3 µM (active)
